Results: US6642392B1 (priority 1997, dated 2003)
Where two headings read alike, the source gives them in different places.

How the values were obtained:
Type in all cases: in vivo
[1] = system: Puccinia recondita; experiment: Test B: wheat leaf rust, preventive spray on wheat seedlings; details: for Test B disease control rating: wheat leaf rust; for Test B disease control rating (100 = 100% disease control, 0 = no disease control): rating relative to controls
Summary of the method: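 Wheat seedlings were sprayed to run-off with compound (3% acetone, 250 ppm Trem 014), then inoculated with P. recondita spores the next day. They were held 24 h saturated at 20 °C, then 6 days at 20 °C. Ratings are 0–100% disease control versus controls.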

[2] = system: Eiysiphe graminis f. sp. tritici; experiment: Test A: wheat powdery mildew, preventive spray on wheat seedlings; details: for Test A disease control rating: wheat powdery mildew; for Test A disease control rating (100 = 100% disease control, 0 = no disease control): rating relative to controls
Summary of the method: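 Compounds (3% acetone, 250 ppm Trem 014) sprayed to run-off on wheat seedlings, inoculated next day with spore dust. Incubated 7 days at 20° C before disease rating, 0–100% control relative to untreated controls.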

[3] = system: Botrytis cinerea; experiment: Test E: gray mold, preventive spray on cucumber seedlings; details: for Test E disease control rating: gray mold on cucumber; for Test E disease control rating (100 = 100% disease control, 0 = no disease control): rating relative to controls
Summary of the method: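 Compounds in 3% acetone were suspended with 250 ppm Trem 014 surfactant and sprayed to run-off on cucumber seedlings. B. cinerea spores were inoculated next day, then 48 h saturated humidity at 20° C and 5 days at 20° C. Disease control rated 0–100% versus controls.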

[4] = system: Phytophthora infestans; details: for Test D disease control rating: tomato late blight; for Test D disease control rating (100 = 100% disease control, 0 = no disease control): rating relative to controls
[5] = system: Pyricularia oryzae; details: for Test C disease control rating: rice blast; for Test C disease control rating (100 = 100% disease control, 0 = no disease control): rating relative to controls
[6] = 100 = 100% disease control, 0 = no control, unmarked entries (standard test concentration)
[7] = 100 = 100% disease control, 0 = no control relative to controls, unmarked entries (standard test concentration)
[8] = tested at 40 ppm, wheat seedlings
[9] = wheat seedlings sprayed to run-off, inoculated the following day, unmarked compounds (standard test rate)
[10] = cucumber seedlings sprayed to run-off, inoculated the following day, unmarked compounds (standard test rate)
[11] = tomato seedlings sprayed to run-off, inoculated the following day, unmarked compounds (standard test rate)
[12] = rice seedlings sprayed to run-off, inoculated the following day, unmarked compounds (standard test rate)

Structure (SMILES)	Test B disease control rating [1, 6]	Test A disease control rating [2, 7]	Test E disease control rating [3, 6]	Test D disease control rating [4, 6]	Test C disease control rating [5, 6]	other results
C=CCc1cccc(C#N)c1OCC(C)NC(=O)C(C#N)C(C)(C)C (mixture of isomers) [compound 204]	0%	0%	0%	0%	74%	
CCC1(C(=O)NC(C)COc2cccc(CF)c2)C(C)C1(Cl)Cl (mixture of isomers) [compound 317]						Test B disease control rating (100 = 100% disease control, 0 = no disease control) [1, 8]: 0%; Test A disease control rating (100 = 100% disease control, 0 = no disease control) [2, 8]: 57%; Test E disease control rating (100 = 100% disease control, 0 = no disease control) ([3]; tested at 40 ppm, cucumber seedlings): 0%; Test D disease control rating (100 = 100% disease control, 0 = no disease control) ([4]; tested at 40 ppm, tomato seedlings): 19%; Test C disease control rating (100 = 100% disease control, 0 = no disease control) ([5]; tested at 40 ppm, rice seedlings): 85%
C[C@H](COc1ccc(F)c(Cl)c1)NC(=O)C(C#N)C(C)(C)C (single isomer, unassigned) [183b]	28%	86%	69%	35%	94%	
CCC1(C(=O)NC(C)C=Cc2ccccc2)C(C)C1(Cl)Cl (mixture of isomers) [compound 263]						Test B disease control rating (100 = 100% disease control, 0 = no disease control) [1, 9]: 0%; Test A disease control rating (100 = 100% disease control, 0 = no disease control) [2, 9]: 86%; Test E disease control rating (100 = 100% disease control, 0 = no disease control) [3, 10]: 0%; Test D disease control rating (100 = 100% disease control, 0 = no disease control) [4, 11]: 33%; Test C disease control rating (100 = 100% disease control, 0 = no disease control) [5, 12]: 86%
CC(COc1c(Cl)cc(Cl)cc1Cl)NC(=O)C(C#N)C(C)(C)C (mixture of isomers) [compound 172]	0%	0%	95%	0%	86%	
CCC1(C(=O)NC(C)COc2cccc(Br)c2)C(C)C1(Cl)Cl (mixture of isomers) [85b]						Test B disease control rating ([1]; tested at 40 ppm): 0%; Test A disease control rating ([2]; tested at 40 ppm): 0%; Test E disease control rating ([3]; tested at 40 ppm): 0%; Test D disease control rating ([4]; tested at 40 ppm): 0%; Test C disease control rating ([5]; tested at 40 ppm): 53%
CCC1(C(=O)NC(C)COc2cc(Cl)cc(Cl)c2)C(C)C1(Cl)Cl (centres unmarked) [compound 115]						Test B disease control rating ([1]; tested at 40 ppm): 0%; Test A disease control rating ([2]; tested at 40 ppm): 52%; Test E disease control rating ([3]; tested at 40 ppm): 0%; Test D disease control rating ([4]; tested at 40 ppm): 0%; Test C disease control rating ([5]; tested at 40 ppm): 32%
CC(COc1c(F)cccc1F)NC(=O)C(C#N)C(C)(C)C (mixture of isomers) [29a]	0%	0%	6%	35%	74%	
C[C@H](COc1ccc(Cl)cc1)NC(=O)C(C#N)C(C)(C)C (single isomer, unassigned) [7d]	68%	62%	6%	0%	99%	
CCC1(C(=O)NCC=Cc2ccccc2)C(C)C1(Cl)Cl (centres unmarked) [compound 156]						Test B disease control rating ([1]; tested at 40 ppm): 0%; Test A disease control rating ([2]; tested at 40 ppm): 0%; Test E disease control rating ([3]; tested at 40 ppm): 0%; Test D disease control rating ([4]; tested at 40 ppm): 0%; Test C disease control rating ([5]; tested at 40 ppm): 0%
CC(COc1cccc(F)c1C#N)NC(=O)C(C#N)C(C)(C)C (mixture of isomers) [compound 39]	0%	0%	0%	2%	86%	
CC(COc1cc(F)ccc1OC(F)F)NC(=O)C(C#N)C(C)(C)C (mixture of isomers) [compound 292]						Test B disease control rating (100 = 100% disease control, 0 = no disease control) [1, 9]: 0%; Test A disease control rating (100 = 100% disease control, 0 = no disease control) [2, 9]: 0%; Test E disease control rating (100 = 100% disease control, 0 = no disease control) [3, 10]: 0%; Test D disease control rating (100 = 100% disease control, 0 = no disease control) [4, 11]: 46%; Test C disease control rating (100 = 100% disease control, 0 = no disease control) [5, 12]: 99%
CC(COc1ccccc1Cl)NC(=O)C(C#N)C(C)(C)C (mixture of isomers) [5a]	68%	0%	0%	0%	0%	
